According to patent US20230398130A1, “METHODS AND COMPOSITIONS FOR DIFFERENTIATING STEM CELLS” (Massachusetts Institute of Technology, priority 2020, published 2023):

What was measured:
ISC-enriched organoids [1] = assay: Primary screen, 384-well 2.5-D organoid differentiation (ENR+CD, 6 days): carbachol-induced lysozyme secretion (LYZ.S); type: cell-based, murine; conditions: for Dose.FC.LYZ.S: FC vs plate median; for Z.LYZ.S: standard z score; for SSMD.LYZ.S: strictly standardized mean difference
Source text: (§1) High-throughput screening.

ISC-enriched organoids [2] = assay: Primary screen, 384-well 2.5-D organoid differentiation (ENR+CD, 6 days, Target Selective Inhibitor Library, vs whole-plate median): ATP (CellTiter-Glo 3D, CTG); conditions: for Dose.FC.CTG: FC vs plate median; for SSMD.CTG: strictly standardized mean difference
ISC-enriched organoids [3] = assay: Primary screen, 384-well 2.5-D organoid differentiation (ENR+CD, 6 days): basal lysozyme secretion (LYZ.NS); type: cell-based, murine; conditions: for Dose.FC.LYZ.NS: FC vs plate median; for SSMD.LYZ.NS: strictly standardized mean difference
Source text: as §1

[4] = Dose 0.08 uM, standard z score of FC
[5] = Dose 0.40 uM, standard z score of FC
[6] = Dose 2.00 uM, standard z score of FC
[7] = Dose 10.00 uM, standard z score of FC
[8] = primary screen, 1st of the 4 dose lines of the treatment (dose not given)
[9] = primary screen, 2nd of the 4 dose lines of the treatment (dose not given)
[10] = primary screen, 3rd of the 4 dose lines of the treatment (dose not given)
[11] = primary screen, 4th of the 4 dose lines of the treatment (dose not given)
[12] = Dose 0.08 uM, primary screen, standard z score
[13] = Dose 0.40 uM, primary screen, standard z score
[14] = Dose 2.00 uM, primary screen, standard z score
[15] = Dose 10.00 uM, primary screen, standard z score

Molecule: CCCCCCCCCCCCCCCCn1cc[n+](Cc2ccccc2)c1C.[I-] [NH125]
- Dose.FC.LYZ.S (ISC-enriched organoids [1]; Dose 0.08 uM, primary screen): −0.114 log 2 fold change
- Dose.FC.LYZ.S (ISC-enriched organoids [1]; Dose 0.40 uM, primary screen): −0.237 log 2 fold change
- Dose.FC.LYZ.S (ISC-enriched organoids [1]; Dose 2.00 uM, primary screen): −0.358 log 2 fold change
- Dose.FC.LYZ.S (ISC-enriched organoids [1]; Dose 10.00 uM, primary screen): −0.374 log 2 fold change
- Dose.FC.CTG (ISC-enriched organoids [2]; Dose 0.08 uM, primary screen): −0.347 log 2 fold change
- Z.CTG (ISC-enriched organoids [2]; [4]): −0.829
- Dose.FC.CTG (ISC-enriched organoids [2]; Dose 0.40 uM, primary screen): −0.508 log 2 fold change
- Z.CTG (ISC-enriched organoids [2]; [5]): −1.213
- Dose.FC.CTG (ISC-enriched organoids [2]; Dose 2.00 uM, primary screen): −1.106 log 2 fold change
- Z.CTG (ISC-enriched organoids [2]; [6]): −2.641
- Dose.FC.CTG (ISC-enriched organoids [2]; Dose 10.00 uM, primary screen): −1.787 log 2 fold change
- Z.CTG (ISC-enriched organoids [2]; [7]): −4.268
- Dose.FC.LYZ.NS (ISC-enriched organoids [3]; Dose 0.08 uM, primary screen): −0.035 log 2 fold change
- Z.LYZ.NS (ISC-enriched organoids [3]; [4]): −0.301
- Dose.FC.LYZ.NS (ISC-enriched organoids [3]; Dose 0.40 uM, primary screen): −0.188 log 2 fold change
- Z.LYZ.NS (ISC-enriched organoids [3]; [5]): −1.634
- Dose.FC.LYZ.NS (ISC-enriched organoids [3]; Dose 2.00 uM, primary screen): −0.219 log 2 fold change
- Z.LYZ.NS (ISC-enriched organoids [3]; [6]): −1.904
- Dose.FC.LYZ.NS (ISC-enriched organoids [3]; Dose 10.00 uM, primary screen): −0.263 log 2 fold change
- Z.LYZ.NS (ISC-enriched organoids [3]; [7]): −2.293

Molecule: CC(C)NC[C@@H](C(=O)N1CCN(c2ncnc3c2[C@H](C)C[C@H]3O)CC1)c1ccc(Cl)cc1 [GDC-0068]
- Dose.FC.LYZ.S (ISC-enriched organoids [1]; Dose 0.08 uM, ENR+CD, 6 days): 0.076 log 2 fold change
- Dose.FC.LYZ.S (ISC-enriched organoids [1]; Dose 0.40 uM, ENR+CD, 6 days): 0.087 log 2 fold change
- Dose.FC.LYZ.S (ISC-enriched organoids [1]; Dose 2.00 uM, ENR+CD, 6 days): −0.059 log 2 fold change
- Dose.FC.LYZ.S (ISC-enriched organoids [1]; Dose 10.00 uM, ENR+CD, 6 days): −0.319 log 2 fold change
- Dose.FC.CTG (ISC-enriched organoids [2]; Dose 0.08 uM, ENR+CD, 6 days): 0.042 log 2 fold change
- Z.CTG (ISC-enriched organoids [2]; [4]): 0.099
- Dose.FC.CTG (ISC-enriched organoids [2]; Dose 0.40 uM, ENR+CD, 6 days): 0.118 log 2 fold change
- Z.CTG (ISC-enriched organoids [2]; [5]): 0.283
- Dose.FC.CTG (ISC-enriched organoids [2]; Dose 2.00 uM, ENR+CD, 6 days): 0.184 log 2 fold change
- Z.CTG (ISC-enriched organoids [2]; [6]): 0.439
- Dose.FC.CTG (ISC-enriched organoids [2]; Dose 10.00 uM, ENR+CD, 6 days): −0.100 log 2 fold change
- Z.CTG (ISC-enriched organoids [2]; [7]): −0.238
- Dose.FC.LYZ.NS (ISC-enriched organoids [3]; Dose 0.08 uM, ENR+CD, 6 days): 0.036 log 2 fold change
- Z.LYZ.NS (ISC-enriched organoids [3]; [4]): 0.311
- Dose.FC.LYZ.NS (ISC-enriched organoids [3]; Dose 0.40 uM, ENR+CD, 6 days): 0.054 log 2 fold change
- Z.LYZ.NS (ISC-enriched organoids [3]; [5]): 0.469
- Dose.FC.LYZ.NS (ISC-enriched organoids [3]; Dose 2.00 uM, ENR+CD, 6 days): −0.077 log 2 fold change
- Z.LYZ.NS (ISC-enriched organoids [3]; [6]): −0.675
- Dose.FC.LYZ.NS (ISC-enriched organoids [3]; Dose 10.00 uM, ENR+CD, 6 days): −0.185 log 2 fold change
- Z.LYZ.NS (ISC-enriched organoids [3]; [7]): −1.613

Molecule: I-BET151 (GSK1210151A)
- Dose.FC.LYZ.S (ISC-enriched organoids [1]; Dose 0.08 uM, primary screen): −0.242 log 2 fold change
- Dose.FC.LYZ.S (ISC-enriched organoids [1]; Dose 0.40 uM, primary screen): −0.344 log 2 fold change
- Dose.FC.LYZ.S (ISC-enriched organoids [1]; Dose 2.00 uM, primary screen): −0.416 log 2 fold change
- Dose.FC.LYZ.S (ISC-enriched organoids [1]; Dose 10.00 uM, primary screen): −0.408 log 2 fold change
- Z.LYZ.S (ISC-enriched organoids [1]; [8]): −1.563
- Z.LYZ.S (ISC-enriched organoids [1]; [9]): −2.225
- Z.LYZ.S (ISC-enriched organoids [1]; [10]): −2.687
- Z.LYZ.S (ISC-enriched organoids [1]; [11]): −2.641
- SSMD.LYZ.S (ISC-enriched organoids [1]; [8]): −1.087
- SSMD.LYZ.S (ISC-enriched organoids [1]; [9]): −1.784
- SSMD.LYZ.S (ISC-enriched organoids [1]; [10]): −1.815
- SSMD.LYZ.S (ISC-enriched organoids [1]; [11]): −1.694
- Dose.FC.CTG (ISC-enriched organoids [2]; Dose 0.08 uM, primary screen): −0.016 log 2 fold change
- Z.CTG (ISC-enriched organoids [2]; [12]): −0.039
- Dose.FC.CTG (ISC-enriched organoids [2]; Dose 0.40 uM, primary screen): −0.174 log 2 fold change
- Z.CTG (ISC-enriched organoids [2]; [13]): −0.415
- Dose.FC.CTG (ISC-enriched organoids [2]; Dose 2.00 uM, primary screen): −0.502 log 2 fold change
- Z.CTG (ISC-enriched organoids [2]; [14]): −1.200
- Dose.FC.CTG (ISC-enriched organoids [2]; Dose 10.00 uM, primary screen): −0.935 log 2 fold change
- Z.CTG (ISC-enriched organoids [2]; [15]): −2.233
- SSMD.CTG (ISC-enriched organoids [2]; [8]): −0.045
- SSMD.CTG (ISC-enriched organoids [2]; [9]): −0.433
- SSMD.CTG (ISC-enriched organoids [2]; [10]): −1.788
- SSMD.CTG (ISC-enriched organoids [2]; [11]): −2.304
- Dose.FC.LYZ.NS (ISC-enriched organoids [3]; Dose 0.08 uM, primary screen): −0.116 log 2 fold change
- Z.LYZ.NS (ISC-enriched organoids [3]; [12]): −1.010
- Dose.FC.LYZ.NS (ISC-enriched organoids [3]; Dose 0.40 uM, primary screen): −0.248 log 2 fold change
- Z.LYZ.NS (ISC-enriched organoids [3]; [13]): −2.159
- Dose.FC.LYZ.NS (ISC-enriched organoids [3]; Dose 2.00 uM, primary screen): −0.299 log 2 fold change
- Z.LYZ.NS (ISC-enriched organoids [3]; [14]): −2.601
- Dose.FC.LYZ.NS (ISC-enriched organoids [3]; Dose 10.00 uM, primary screen): −0.284 log 2 fold change
- Z.LYZ.NS (ISC-enriched organoids [3]; [15]): −2.473
- SSMD.LYZ.NS (ISC-enriched organoids [3]; [8]): −0.856
- SSMD.LYZ.NS (ISC-enriched organoids [3]; [9]): −1.677
- SSMD.LYZ.NS (ISC-enriched organoids [3]; [10]): −1.629
- SSMD.LYZ.NS (ISC-enriched organoids [3]; [11]): −1.342
